{"source": "patent US9932637B2", "about": "“Genetic polymorphisms associated with cardiovascular disorders and drug response, methods of detection and uses thereof” (CELERA CORPORATION, priority 2003, dated 2018)", "tested_on": "patients with prior myocardial infarction (CARE study)", "experiment": "CARE: association of SNPs with pravastatin treatment in cardiovascular events prevention (logistic regression, odds ratio pravastatin vs placebo by genotype; Table 8)", "format": "in vivo, human", "conditions": "for Prava vs. Placebo Odds Ratio, 0 Rare Alleles / Prava vs. Placebo Odds Ratio, 1 Rare Alleles / Prava vs. Placebo Odds Ratio, 2 Rare Alleles: SELP hCV11975296; for Prava vs. Placebo Odds Ratio, 0 Rare Alleles / Prava vs. Placebo Odds Ratio, 1 Rare Alleles / Prava vs. Placebo Odds Ratio, 2 Rare Alleles / Odds ratio pravastatin vs placebo: All Patients; for Any Report of Stroke During CARE, n/total (%) / Fatal/Non-fatal Cerebrovascular Disease, n/total (%): SERPINA1 hCV1260328, All Patients; for Coronary Artery Bypass Graft, n/total (%): SERPINA1 hCV25640505, All Patients; for Fatal/Nonfatal Atherosclerotic CV Disease, n/total (%): SERPINB6 hCV16190893, All Patients; for Fatal CHD/Definite Non-fatal MI, n/total (%): TAP1 hCV549926, All Patients", "description": "In order to identify genetic markers associated with acute coronary events (e.g. MI, stroke, unstable angina, congestive heart failure, etc.) or response to statin treatment for the prevention of coronary events, samples from the Cholesterol and Recurrent Events (CARE) study (a randomized multicentral double-blinded trial on secondary prevention of acute coronary events with pravastatin) (Sacks et al., 1991, Am. J. Cardiol. 68: 1436-1446) were genotyped. A well-documented myocardial infarction (MI) was one of the enrollment criteria for entry into the CARE study. Patients were enrolled in the CARE trial from 80 participating study centers. […] Patients were randomized to receive either 40 mg of pravastatin once daily or a matching placebo. The primary endpoint of the trial was death from coronary heart disease and the median duration of follow-up was 5.0 years (range, 4.0 to 6.2 years). […] Secondary endpoints of other related cardiovascular or metabolic disease events, and changes in clinical variables were also recorded in pravastatin-treated and placebo groups. All individuals included in the study had signed a written informed consent form and the study protocol was approved by the respective Institutional Review Boards (IRBs).\nFor genotyping SNPs in CARE patient samples, DNA was extracted from blood samples using conventional DNA extraction methods such as the QIA-amp kit from Qiagen. Genotypes were obtained on an ABI PRISM® 7900HT Sequence Detection PCR system (Applied Biosystems, Foster City, Calif.) by kinetic allele-specific PCR, similar to the method described by Germer et al. (Germer S., Holland M. J., Higuchi R. 2000, Genome Res. 10: 258-266).\nStatistical analysis for association of SNPs with pravastatin treatment in cardiovascular events prevention (Table 8) was carried out using an overall logistic regression model that included an intercept, a parameter for the effect of a genotype containing two rare alleles versus a genotype containing no rare alleles, a parameter for the effect of a genotype containing one rare allele versus a genotype containing no rare alleles, a parameter for the effect of use of pravastatin versus the use of placebo, and parameters for the interaction effects between SNP genotypes and pravastatin use. The test of the overall model is a chi-square test with two degrees of freedom for analyses containing all three genotypes, and one degree of freedom for analyses containing two genotypes.\nEffect sizes were estimated through odds ratios (pravastatin group versus placebo) for carriers of each genotype (groups of 0, 1, and 2 minor allele carriers). The effect was considered to be significant if p-value for testing whether any of the interactions between SNP genotypes and pravastatin use were <0.05. […] Odds ratios less than one indicate that the specific SNP allele has a protective effect and odds ratios greater than one indicate that the specific SNP allele has an adverse effect.", "key": {"[1]": {"conditions": "SELP hCV11975296, All Patients, 2 Rare Alleles, Prava arm"}, "[2]": {"conditions": "Coronary Artery Bypass or Revascularization"}, "[3]": {"conditions": "Hosp. for Cardiovascular Disease"}, "[4]": {"conditions": "SN hCV25623265, All Patients, 0 Rare Alleles, Prava arm"}, "[5]": {"conditions": "SN hCV25623265, All Patients, 1 Rare Allele, Prava arm"}, "[6]": {"conditions": "SN hCV25623265, All Patients, 2 Rare Alleles, Prava arm"}, "[7]": {"conditions": "TGFB1 hCV8708473, All Patients, 0 Rare Alleles, Prava arm"}}, "data": [{"smiles": "CC[C@H](C)C(=O)O[C@H]1C[C@H](O)C=C2C=C[C@H](C)[C@H](CC[C@@H](O)C[C@@H](O)CC(=O)O)[C@H]21", "note": "[pravastatin]", "values": [{"measurement": "Coronary Artery Bypass or Revascularization, n/total (%)", "setting": "[1]", "value": "(20.3%)"}, {"measurement": "Hosp. for Cardiovascular Disease, n/total (%)", "setting": "[1]", "value": "(49.2%)"}, {"measurement": "Hosp. for Unstable Angina, n/total (%)", "setting": "[1]", "value": "(27.1%)"}, {"measurement": "Prava vs. Placebo Odds Ratio, 0 Rare Alleles", "setting": "[2]", "value": 0.68}, {"measurement": "Prava vs. Placebo Odds Ratio, 1 Rare Alleles", "setting": "[2]", "value": 0.63}, {"measurement": "Prava vs. Placebo Odds Ratio, 2 Rare Alleles", "setting": "[2]", "value": 5.74}, {"measurement": "Prava vs. Placebo Odds Ratio, 0 Rare Alleles", "setting": "[3]", "value": 0.81}, {"measurement": "Prava vs. Placebo Odds Ratio, 1 Rare Alleles", "setting": "[3]", "value": 0.62}, {"measurement": "Prava vs. Placebo Odds Ratio, 2 Rare Alleles", "setting": "[3]", "value": 1.71}, {"measurement": "Prava vs. Placebo Odds Ratio, 0 Rare Alleles", "setting": "Hosp. for Unstable Angina", "value": 0.82}, {"measurement": "Prava vs. Placebo Odds Ratio, 1 Rare Alleles", "setting": "Hosp. for Unstable Angina", "value": 0.69}, {"measurement": "Prava vs. Placebo Odds Ratio, 2 Rare Alleles", "setting": "Hosp. for Unstable Angina", "value": 5.45}, {"measurement": "Any Report of Stroke During CARE, n/total (%)", "setting": "0 Rare Alleles, Prava arm", "value": "(2.9%)"}, {"measurement": "Fatal/Non-fatal Cerebrovascular Disease, n/total (%)", "setting": "0 Rare Alleles, Prava arm", "value": "(5.9%)"}, {"measurement": "Any Report of Stroke During CARE, n/total (%)", "setting": "1 Rare Allele, Prava arm", "value": "(1.2%)"}, {"measurement": "Fatal/Non-fatal Cerebrovascular Disease, n/total (%)", "setting": "1 Rare Allele, Prava arm", "value": "(2.8%)"}, {"measurement": "Any Report of Stroke During CARE, n/total (%)", "setting": "2 Rare Alleles, Prava arm", "value": "(1.4%)"}, {"measurement": "Fatal/Non-fatal Cerebrovascular Disease, n/total (%)", "setting": "2 Rare Alleles, Prava arm", "value": "(2.7%)"}, {"measurement": "Odds ratio pravastatin vs placebo", "setting": "SERPINA1 hCV1260328, Any Report of Stroke During CARE, 0 rare alleles", "value": 0.87}, {"measurement": "Odds ratio pravastatin vs placebo", "setting": "SERPINA1 hCV1260328, Any Report of Stroke During CARE, 1 rare allele", "value": 0.23}, {"measurement": "Odds ratio pravastatin vs placebo", "setting": "SERPINA1 hCV1260328, Any Report of Stroke During CARE, 2 rare alleles", "value": 0.21}, {"measurement": "Odds ratio pravastatin vs placebo", "setting": "SERPINA1 hCV1260328, Fatal/Non-fatal Cerebrovascular Disease, 0 rare alleles", "value": 1.03}, {"measurement": "Odds ratio pravastatin vs placebo", "setting": "SERPINA1 hCV1260328, Fatal/Non-fatal Cerebrovascular Disease, 1 rare allele", "value": 0.36}, {"measurement": "Odds ratio pravastatin vs placebo", "setting": "SERPINA1 hCV1260328, Fatal/Non-fatal Cerebrovascular Disease, 2 rare alleles", "value": 0.17}, {"measurement": "Coronary Artery Bypass Graft, n/total (%)", "setting": "0 Rare Alleles, Prava arm", "value": "(6.1%)"}, {"measurement": "Coronary Artery Bypass Graft, n/total (%)", "setting": "1 Rare Allele, Prava arm", "value": "(9.0%)"}, {"measurement": "Coronary Artery Bypass Graft, n/total (%)", "setting": "2 Rare Alleles, Prava arm", "value": "(7.4%)"}, {"measurement": "Fatal/Nonfatal Atherosclerotic CV Disease, n/total (%)", "setting": "0 Rare Alleles, Prava arm", "value": "(34.9%)"}, {"measurement": "Fatal/Nonfatal Atherosclerotic CV Disease, n/total (%)", "setting": "1 Rare Allele, Prava arm", "value": "(32.4%)"}, {"measurement": "Fatal/Nonfatal Atherosclerotic CV Disease, n/total (%)", "setting": "2 Rare Alleles, Prava arm", "value": "(29.7%)"}, {"measurement": "Coronary Artery Bypass or Revascularization, n/total (%)", "setting": "[4]", "value": "(13.0%)"}, {"measurement": "Definite Nonfatal MI, n/total (%)", "setting": "[4]", "value": "(8.2%)"}, {"measurement": "Fatal CHD/Definite Nonfatal MI, n/total (%)", "setting": "[4]", "value": "(9.7%)"}, {"measurement": "Percutaneous Transluminal Coronary Angioplas, n/total (%)", "setting": "[4]", "value": "(7.5%)"}, {"measurement": "Total Coronary Heart Disease Events, n/total (%)", "setting": "[4]", "value": "(27.2%)"}, {"measurement": "Coronary Artery Bypass or Revascularization, n/total (%)", "setting": "[5]", "value": "(14.9%)"}, {"measurement": "Definite Nonfatal MI, n/total (%)", "setting": "[5]", "value": "(7.6%)"}, {"measurement": "Fatal CHD/Definite Nonfatal MI, n/total (%)", "setting": "[5]", "value": "(10.8%)"}, {"measurement": "Percutaneous Transluminal Coronary Angioplas, n/total (%)", "setting": "[5]", "value": "(9.5%)"}, {"measurement": "Total Coronary Heart Disease Events, n/total (%)", "setting": "[5]", "value": "(30.5%)"}, {"measurement": "Coronary Artery Bypass or Revascularization, n/total (%)", "setting": "[6]", "value": "(15.0%)"}, {"measurement": "Definite Nonfatal MI, n/total (%)", "setting": "[6]", "value": "(2.8%)"}, {"measurement": "Fatal CHD/Definite Nonfatal MI, n/total (%)", "setting": "[6]", "value": "(4.6%)"}, {"measurement": "Percutaneous Transluminal Coronary Angioplas, n/total (%)", "setting": "[6]", "value": "(9.8%)"}, {"measurement": "Total Coronary Heart Disease Events, n/total (%)", "setting": "[6]", "value": "(28.2%)"}, {"measurement": "Fatal CHD/Definite Non-fatal MI, n/total (%)", "setting": "0 Rare Alleles, Prava arm", "value": "(10.0%)"}, {"measurement": "Fatal CHD/Definite Non-fatal MI, n/total (%)", "setting": "1 Rare Allele, Prava arm", "value": "(8.2%)"}, {"measurement": "Fatal CHD/Definite Non-fatal MI, n/total (%)", "setting": "2 Rare Alleles, Prava arm", "value": "(4.1%)"}, {"measurement": "Odds ratio pravastatin vs placebo", "setting": "TAP1 hCV549926, Fatal CHD/Definite Non-fatal MI, 0 rare alleles", "value": 0.85}, {"measurement": "Odds ratio pravastatin vs placebo", "setting": "TAP1 hCV549926, Fatal CHD/Definite Non-fatal MI, 1 rare allele", "value": 0.54}, {"measurement": "Odds ratio pravastatin vs placebo", "setting": "TAP1 hCV549926, Fatal CHD/Definite Non-fatal MI, 2 rare alleles", "value": 0.16}, {"measurement": "Any Report of Stroke Prior to or During CARE, n/total (%)", "setting": "[7]", "value": "(7.5%)"}, {"measurement": "Cardiovascular Mortality, n/total (%)", "setting": "[7]", "value": "(5.5%)"}, {"measurement": "Fatal Atherosclerotic Cardiovascular Disease, n/total (%)", "setting": "[7]", "value": "(5.4%)"}, {"measurement": "Fatal Coronary Heart Disease, n/total (%)", "setting": "[7]", "value": "(5.1%)"}, {"measurement": "Fatal/Non-fatal Atherosclerotic CV Disease, n/total (%)", "setting": "[7]", "value": "(37.2%)"}, {"measurement": "Total Coronary Heart Disease Events, n/total (%)", "setting": "[7]", "value": "(32.1%)"}, {"measurement": "Total Mortality, n/total (%)", "setting": "[7]", "value": "(7.2%)"}]}]}
